Reference: patent US6596288B2, “Use of sterols as active ingredient in a cosmetic composition against adiposity” (Codif International SA, priority 2000, dated 2003)

What was measured:
[1] = test system: human adipocytes; assay: liberation of NEFA (non-esterified fatty acids) (LIPOLYSIS) by isolated human adipocytes; format: cell-based; conditions: for % Control (NEFA liberation) / Average of the NEFA: 2 hours at 37° C.
Method: (§1) In these experiments, adipocytes were isolated from abdominal restorative surgeries sampled in women. The experiment took place the day of the sampling. Fragments of adipose tissues were incubated for 30 minutes at 37° C. in the presence of collagenase, then the isolated adipocytes were washed and taken up in medium MEM buffered with bicarbonate, in the presence of antibiotics (penicillin/streptomycin), glutamine (2 mM), and delipidated bovine serum albumin (0.5%).
As to the tests concerning the effect on lipolysis, they were conducted in the following manner. Adipocytes (540 μl of suspension) were incubated for 2 hours in a water bath at 37° C., with agitation, in the presence of 60 μl of different sterols. The experiments were carried out in triplicate.
Then, the non-esterified fatty acids (AGNE) released by the adipocytes were determined in the sub-adipocyte media. The values obtained were treated by an analysis of variance (ANOVA) by means of the multiple comparison test of Dunnett. The values were considered as significant when the probability p was less than the threshold of significance 0.05.

[2] = test system: human adipocytes; assay: incorporation of [2-14C]-acetate into lipids (LIPOGENESIS) by isolated human adipocytes; format: cell-based; conditions: for % control (incorporation of acetate) / % inhibition (incorporation of acetate) / Average of cpm (incorporation of acetate) / cpm - t0 test (incorporation of acetate) / inhibition at 10 µM / inhibition at 100 µM / inhibition at 1000 µM: 4 h; for inhibition at 10 µM / inhibition at 100 µM / inhibition at 1000 µM: Homo sapiens, Adipocyte
Method: as §1
The tests concerning the effect on lipogenesis were then conducted in the following manner.
Adipocytes (90 μl of ¼ diluted suspension) were incubated for 1 hour, either with a control medium (4 hours), with molecules known to inhibit the neosynthesis of fatty acids (EPA), as for example […], or with previously diluted extracts (added under 100 μl).
As to the sterols and to the lipidic extracts of plants or algae, they were diluted in mineral oil which has been verified to not inhibit incorporation or extraction of adipocyte lipids. Then, 10 μl of [2^14C]-acetate, 50 μCi/ml, were added, and the samples were either cultivated at 37° C. in the presence of 5% CO2 for 4 additional hours, or immediately frozen at −80° C. (control t0).
At the times indicated, the samples were frozen at −80° C. The lipids were then extracted according to the method of Bligh and Dyer (extraction methanol/chloroform/water), then dried under nitrogen. The radioactivity incorporated was then counted by liquid scintillation.

[3] = 10^−6 M, 10^−5 M, 10^−4 M, 10^−3 M and 10^−2 M
[4] = 0.01 mM (10^−5 M), absence of insulin
[5] = 0.01 mM (10^−5 M), presence of insulin (1 nM)
[6] = 0.1 mM (10^−4 M), absence of insulin
[7] = 0.1 mM (10^−4 M), presence of insulin (1 nM)
[8] = 1 mM (10^−3 M), absence of insulin
[9] = 1 mM (10^−3 M), presence of insulin (1 nM)

CC[C@H](CC[C@@H](C)[C@H]1CC[C@H]2[C@@H]3CC=C4C[C@@H](O)CC[C@]4(C)[C@H]3CC[C@]12C)C(C)C [Beta-sitosterol, beta-sitosterol]
% Control (NEFA liberation) ([1]; 10^−2 M): 92% | Average of the NEFA ([1]; 10^−2 M): 131 µM | % Control (NEFA liberation) ([1]; 10^−3 M (1 mM)): 103% | Average of the NEFA ([1]; 10^−3 M (1 mM)): 145 µM | % Control (NEFA liberation) ([1]; 10^−4 M): 96% | Average of the NEFA ([1]; 10^−4 M): 135 µM | % Control (NEFA liberation) ([1]; 10^−5 M): 107% | Average of the NEFA ([1]; 10^−5 M): 151 µM | % Control (NEFA liberation) ([1]; 10^−6 M (1 μM)): 110% | Average of the NEFA ([1]; 10^−6 M (1 μM)): 156 µM | stimulation of lipolysis [1, 3]: did not stimulate lipolysis | incorporation of acetate by isolated human adipocytes (conclusion) [2]: inhibit the incorporation of acetate | % control (incorporation of acetate) [2, 4]: 96% | % inhibition (incorporation of acetate) [2, 4]: 4% | Average of cpm (incorporation of acetate) [2, 4]: 200044 cpm | cpm - t0 test (incorporation of acetate) [2, 4]: 193579 cpm | % inhibition (incorporation of acetate) ([2]; 0.01 mM (10^−5 M), absence of insulin, listed as beta-sitosterol): weak and non-significant | % control (incorporation of acetate) [2, 5]: 89% | Average of cpm (incorporation of acetate) [2, 5]: 216417 cpm | cpm - t0 test (incorporation of acetate) [2, 5]: 209952 cpm | % control (incorporation of acetate) [2, 6]: 95% | % inhibition (incorporation of acetate) [2, 6]: 5% | Average of cpm (incorporation of acetate) [2, 6]: 198694 cpm | cpm - t0 test (incorporation of acetate) [2, 6]: 192229 cpm | % inhibition (incorporation of acetate) ([2]; 0.1 mM (10^−4 M), absence of insulin, listed as beta-sitosterol): weak and non-significant | % control (incorporation of acetate) [2, 7]: 93% | Average of cpm (incorporation of acetate) [2, 7]: 224445 cpm | cpm - t0 test (incorporation of acetate) [2, 7]: 217980 cpm | % control (incorporation of acetate) [2, 8]: 84% | % inhibition (incorporation of acetate) [2, 8]: 16% | Average of cpm (incorporation of acetate) [2, 8]: 175711 cpm | cpm - t0 test (incorporation of acetate) [2, 8]: 169246 cpm | % control (incorporation of acetate) [2, 9]: 83% | % inhibition (incorporation of acetate) [2, 9]: 17% | Average of cpm (incorporation of acetate) [2, 9]: 201168 cpm | cpm - t0 test (incorporation of acetate) [2, 9]: 194703 cpm

CC(C)[C@H](C)CC[C@@H](C)[C@H]1CC[C@H]2[C@@H]3CC=C4C[C@@H](O)CC[C@]4(C)[C@H]3CC[C@]12C [Campesterol, campesterol]
% Control (NEFA liberation) ([1]; 10^−2 M): 118% | Average of the NEFA ([1]; 10^−2 M): 167 µM | % Control (NEFA liberation) ([1]; 10^−3 M (1 mM)): 98% | Average of the NEFA ([1]; 10^−3 M (1 mM)): 138 µM | % Control (NEFA liberation) ([1]; 10^−4 M): 109% | Average of the NEFA ([1]; 10^−4 M): 155 µM | % Control (NEFA liberation) ([1]; 10^−5 M): 99% | Average of the NEFA ([1]; 10^−5 M): 140 µM | % Control (NEFA liberation) ([1]; 10^−6 M (1 μM)): 117% | Average of the NEFA ([1]; 10^−6 M (1 μM)): 166 µM | stimulation of lipolysis [1, 3]: did not stimulate lipolysis | incorporation of acetate by isolated human adipocytes (conclusion) [2]: inhibit the incorporation of acetate | % control (incorporation of acetate) [2, 4]: 92% | Average of cpm (incorporation of acetate) [2, 4]: 191817 cpm | cpm - t0 test (incorporation of acetate) [2, 4]: 185352 cpm | % control (incorporation of acetate) [2, 5]: 101% | % inhibition (incorporation of acetate) [2, 5]: no significant effect | Average of cpm (incorporation of acetate) [2, 5]: 243051 cpm | cpm - t0 test (incorporation of acetate) [2, 5]: 236586 cpm | % control (incorporation of acetate) [2, 6]: 90% | Average of cpm (incorporation of acetate) [2, 6]: 188278 cpm | cpm - t0 test (incorporation of acetate) [2, 6]: 181813 cpm | % control (incorporation of acetate) [2, 7]: 85% | Average of cpm (incorporation of acetate) [2, 7]: 206655 cpm | cpm - t0 test (incorporation of acetate) [2, 7]: 200190 cpm | % control (incorporation of acetate) [2, 8]: 74% | Average of cpm (incorporation of acetate) [2, 8]: 156448 cpm | cpm - t0 test (incorporation of acetate) [2, 8]: 149983 cpm | % control (incorporation of acetate) [2, 9]: 48% | Average of cpm (incorporation of acetate) [2, 9]: 119960 cpm | cpm - t0 test (incorporation of acetate) [2, 9]: 113495 cpm | inhibition at 10 µM [2, 4]: 8% | inhibition at 10 µM [2, 5]: 0% | inhibition at 100 µM [2, 6]: 10% | inhibition at 100 µM [2, 7]: 15% | inhibition at 1000 µM [2, 8]: 26% | inhibition at 1000 µM [2, 9]: 52%

CC/C=C\C/C=C\C/C=C\C/C=C\C/C=C\CCCC(=O)O [EPA, eicosapentanoic acid, reference compound]
% control (incorporation of acetate) [2, 6]: 18% | % inhibition (incorporation of acetate) [2, 6]: 82% | Average of cpm (incorporation of acetate) [2, 6]: 43253 cpm | cpm - t0 test (incorporation of acetate) [2, 6]: 36788 cpm | % control (incorporation of acetate) [2, 7]: 38% | % inhibition (incorporation of acetate) [2, 7]: 62% | Average of cpm (incorporation of acetate) [2, 7]: 96244 cpm | cpm - t0 test (incorporation of acetate) [2, 7]: 89779 cpm | % control (incorporation of acetate) [2, 8]: 3% | % inhibition (incorporation of acetate) [2, 8]: 97% | Average of cpm (incorporation of acetate) [2, 8]: 1287 cpm | cpm - t0 test (incorporation of acetate) [2, 8]: 6373 cpm | % control (incorporation of acetate) [2, 9]: 3% | % inhibition (incorporation of acetate) [2, 9]: 97% | Average of cpm (incorporation of acetate) [2, 9]: 13384 cpm | cpm - t0 test (incorporation of acetate) [2, 9]: 6919 cpm

CC(C)NCC(O)c1ccc(O)c(O)c1 (stereo not shown) [Isoproterenol, isoproterenol, reference compound]
stimulation of lipolysis ([1]; 1 μM, p<0.05): stimulated the lipolysis | % Control (NEFA liberation) ([1]; 10^−6 M (1 μM)): 342% | Average of the NEFA ([1]; 10^−6 M (1 μM)): 483 µM

CC[C@H](/C=C/[C@@H](C)[C@H]1CC[C@H]2[C@@H]3CC=C4C[C@@H](O)CC[C@]4(C)[C@H]3CC[C@]12C)C(C)C [Stigmasterol, stigmasterol]
liberation of fatty acids by isolated human adipocytes (conclusion) [1]: increases the liberation of fatty acids | % Control (NEFA liberation) ([1]; 10^−2 M): 112% | Average of the NEFA ([1]; 10^−2 M): 158 µM | % Control (NEFA liberation) ([1]; 10^−3 M (1 mM)): 126% | Average of the NEFA ([1]; 10^−3 M (1 mM)): 178 µM | % Control (NEFA liberation) ([1]; 10^−4 M): 133% | Average of the NEFA ([1]; 10^−4 M): 189 µM | % Control (NEFA liberation) ([1]; 10^−5 M): 128% | Average of the NEFA ([1]; 10^−5 M): 180 µM | % Control (NEFA liberation) ([1]; 10^−6 M (1 μM)): 112% | Average of the NEFA ([1]; 10^−6 M (1 μM)): 158 µM | effect on liberation of NEFA ([1]; 10^−6 M and 10^−2 M): did not show significant effect | % control (incorporation of acetate) [2, 4]: 95% | % inhibition (incorporation of acetate) [2, 4]: weak and non-significant | Average of cpm (incorporation of acetate) [2, 4]: 198442 cpm | cpm - t0 test (incorporation of acetate) [2, 4]: 191977 cpm | % control (incorporation of acetate) [2, 5]: 98% | % inhibition (incorporation of acetate) [2, 5]: 2% | Average of cpm (incorporation of acetate) [2, 5]: 235529 cpm | cpm - t0 test (incorporation of acetate) [2, 5]: 229064 cpm | % inhibition (incorporation of acetate) ([2]; 0.01 mM (10^−5 M), presence of insulin (1 nM), listed as stigmasterol): less than 5% | % control (incorporation of acetate) [2, 6]: 96% | % inhibition (incorporation of acetate) [2, 6]: weak and non-significant | Average of cpm (incorporation of acetate) [2, 6]: 200467 cpm | cpm - t0 test (incorporation of acetate) [2, 6]: 194002 cpm | % control (incorporation of acetate) [2, 7]: 97% | % inhibition (incorporation of acetate) [2, 7]: 3% | Average of cpm (incorporation of acetate) [2, 7]: 234524 cpm | cpm - t0 test (incorporation of acetate) [2, 7]: 228059 cpm | % control (incorporation of acetate) [2, 8]: 101% | % inhibition (incorporation of acetate) [2, 8]: weak and non-significant | Average of cpm (incorporation of acetate) [2, 8]: 210055 cpm | cpm - t0 test (incorporation of acetate) [2, 8]: 203590 cpm | % control (incorporation of acetate) [2, 9]: 94% | % inhibition (incorporation of acetate) [2, 9]: 6% | Average of cpm (incorporation of acetate) [2, 9]: 227385 cpm | cpm - t0 test (incorporation of acetate) [2, 9]: 220920 cpm | inhibition at 10 µM [2, 4]: 5% | inhibition at 100 µM [2, 6]: 4% | inhibition at 100 µM [2, 7]: < 5% | inhibition at 1000 µM [2, 8]: 0% | inhibition at 1000 µM [2, 9]: < 5%

Cn1c(=O)c2[nH]cnc2n(C)c1=O [Theophylline, theophylline, reference compound]
stimulation of lipolysis ([1]; 1 nM, p<0.05): stimulated the lipolysis | % Control (NEFA liberation) ([1]; 10^−3 M (1 mM)): 390% | Average of the NEFA ([1]; 10^−3 M (1 mM)): 551 µM

insulin
increase of the incorporation of acetate ([2]; 1 nM of insulin): 16% | increase of the incorporation of acetate ([2]; 100 nM of insulin, another donor): 120%
